Laboratory results taken from PMC6768028, “Synthesis, SAR and in vitro therapeutic potentials of thiazolidine-2,4-diones” (Chemistry Central Journal, 2018).
Converted amounts (≈) assume the structure as drawn. Read-outs that look alike come from different tables or passages of the source.

Columns and labels:
[1] = Antioxidant activity: free radical scavenging method by DPPH assay; conditions: for % inhibition (DPPH), 25 μg/ml / % inhibition (DPPH), 50 μg/ml / % inhibition (DPPH), 75 μg/ml / % inhibition (DPPH), 100 μg/ml: 30 min, 517 nm; for IC50 (antioxidant activity, DPPH): calculated via graph of % inhibition
Protocol: The antioxidant activity of the newly synthesized compounds were evaluated spectrophotometrically using free radical scavenging method by DPPH (2,2-diphenyl-1-picrylhydrazyl) assay. The DPPH is a stable free radical with maximal absorption at 517 nm and is reduced to a corresponding hydrazine when it reacting with hydrogen donors. […] DPPH solution (3 μg/ml) was prepared in methanol and DPPH (in 1:1) solution was used for blank reference. Four dilutions of different concentrations (25, 50, 75 and 100 μg/ml) of each synthesized compound and standard (ascorbic acid) were prepared in the methanol and 1 ml of each concentration was added to 1 ml of DPPH solution. The solution mixture was shaken vigorously and kept in dark place for 30 min at room temperature and absorbance was measured by UV at 517 nm. Percentage inhibition of Free radical DPPH was calculated as follows:1 %Inhibition=ABlank-ASample/ABlank×100 where, ABlank: absorbance of the blank reaction, ASample: absorbance of the test compound.

[2] = system: Aspergillus niger; test: Antifungal activity, tube dilution method (MIC); type: cell-based; conditions: 168 h
Protocol: (§1) The in vitro antimicrobial activity of synthesized compounds was done by tube dilution method against Gram-positive bacteria: Staphylococcus aureus, Bacillus subtilis, Gram-negative bacteria: Escherichia coli, Klebsiella pneumonia, Salmonella typhi and fungal: Candida albicans and Aspergillus niger strains using cefadroxil and fluconazole as standard. Dilutions of test and standard compounds were prepared in double strength nutrient broth for bacterial strains and Sabouraud dextrose broth for fungal strains.

[3] = system: Candida albicans; test: Antifungal activity, tube dilution method (MIC); type: cell-based; conditions: 48 h
Protocol: as §1

[4] = system: α-amylase enzyme (diastase); test: Antidiabetic activity: α-amylase inhibitory activity using diastase, colorimetric method; type: biochemical; conditions: for IC50 (antidiabetic activity, α-amylase): calculated via graph of % inhibition
Protocol: All the synthesized compounds were evaluated against α-amylase inhibitory activity by using diastase based on colorimetric method. 0.25 g of soluble potato starch was dissolved in 50 ml of 20 mM phosphate buffer by heating for 15 min. 1 mg diastase (amylase enzyme) was mixed in 100 ml of 20 mM phosphate buffer (pH 6.9) to obtain the enzyme solution. Different concentrations of all the synthesized derivatives were prepared by dissolving them in DMSO. […] 1 ml of enzyme solution was mixed with 1 ml of each synthesized derivatives and incubated for 10 min at 25 °C. Then 1 ml of this mixture was mixed with 1 ml of soluble potato starch solution in a tube and incubated for 10 min at 25 °C. Then tubes were closed after adding 1 ml of color reagent and placed into water bath for 15 min at 85 °C. The reaction mixture was removed from water bath after 15 min. After cooling, the reaction mixture was diluted with 9 ml of distilled water and the absorbance was taken at 540 nm in UV spectrophotometer. Blank solution was prepared by replacing the enzyme solution with buffer solution and absorbance was taken. Measurement of control was performed in identical manner by replacing the synthesized derivatives in 1 ml of DMSO.
Percentage inhibition of α-amylase enzyme was calculated by using following formula:1 %Inhibition=ABlank-ASample/ABlank×100

[5] = system: Klebsiella pneumonia; test: Antimicrobial activity, tube dilution method (MIC); type: cell-based; conditions: Klebsiella pneumoniae, 24 h
Protocol: as §1

[6] = system: Salmonella typhi; test: Antimicrobial activity, tube dilution method (MIC); type: cell-based; conditions: Salmonella enterica, TYPHI, 24 h, read-out: Minimum inhibitory concentration, S. typhi
Protocol: as §1

[7] = system: Escherichia coli; test: Antimicrobial activity, tube dilution method (MIC); type: cell-based; conditions: 24 h
Protocol: as §1

[8] = system: Bacillus subtilis; test: Antimicrobial activity, tube dilution method (MIC); type: cell-based; conditions: 24 h
Protocol: as §1

[9] = system: Staphylococcus aureus; test: Antimicrobial activity, tube dilution method (MIC); type: cell-based; conditions: 24 h, read-out: Minimum inhibitory concentration, S. aureus, tube dilution, 37 ± 1 °C, 24 h
Protocol: as §1

[10] = read-out: Minimum inhibitory concentration, K. pneumonia, tube dilution, 37 ± 1 °C, 24 h
[11] = read-out: Minimum inhibitory concentration, E. coli, tube dilution, 37 ± 1 °C, 24 h
[12] = read-out: Minimum inhibitory concentration, B. subtilis, tube dilution, 37 ± 1 °C, 24 h
[13] = read-out: Minimum inhibitory concentration, A. niger, tube dilution, 25 ± 1 °C, 7 days
[14] = read-out: Minimum inhibitory concentration, C. albicans, tube dilution, 37 ± 1 °C, 48 h
[15] = tube dilution, 37 ± 1 °C, read-out: Minimum inhibitory concentration, K. pneumonia
[16] = tube dilution, 37 ± 1 °C, read-out: Minimum inhibitory concentration, B. subtilis

SMILES	% inhibition (DPPH), 25 μg/ml [1] [%]	% inhibition (DPPH), 50 μg/ml [1] [%]	% inhibition (DPPH), 75 μg/ml [1] [%]	% inhibition (DPPH), 100 μg/ml [1] [%]	IC50 (antioxidant activity, DPPH) [1] [µg/mL]	% inhibition (α-amylase), 25 μg/ml [4] [%]	% inhibition (α-amylase), 50 μg/ml [4] [%]	% inhibition (α-amylase), 75 μg/ml [4] [%]	% inhibition (α-amylase), 100 μg/ml [4] [%]	IC50 (antidiabetic activity, α-amylase) [4] [µg/mL]	MIC [5, 10] [mM]	MIC [6] [mM]	MIC [7, 11] [mM]	MIC [8, 12] [mM]	MIC [9] [mM]	MIC [2, 13] [mM]	MIC [3, 14] [mM]	also measured
O=C1O[C@H]([C@@H](O)CO)C(O)=C1O [Ascorbic acid, ascorbic acid, reference compound]	38.99	55.78	72.51	93.15	21.64 (≈ 123 µM)													
OC(Cn1cncn1)(Cn1cncn1)c1ccc(F)cc1F [Fluconazole, fluconazole, reference compound]																		MIC ([2]; tube dilution, 25 ± 1 °C, 7 days, read-out: Minimum inhibitory concentration, A. niger): 4.08 mM (≈ 1250 µg/mL); MIC ([3]; tube dilution, 37 ± 1 °C, read-out: Minimum inhibitory concentration, C. albicans): 4.08 mM (≈ 1250 µg/mL)
O=C1NC(=O)C(=Cc2ccccc2Cl)S1 [Compound 13, 5-(2-Chlorobenzylidene)thiazolidine-2,4-dione]	24.45	44.76	71.51	77.84	39.41 (≈ 164 µM)	25.74	43.89	56.76	92.72	48.45 (≈ 202 µM)	10.4 (≈ 2490 µg/mL)	5.21 (≈ 1250 µg/mL)	5.21 (≈ 1250 µg/mL)	10.4 (≈ 2490 µg/mL)	5.21 (≈ 1250 µg/mL)	2.6 (≈ 623 µg/mL)	5.21 (≈ 1250 µg/mL)	
O=C1NC(=O)C(=C/C=C/c2ccccc2)S1 [Compound 20, 5-((E)-3-Phenylallylidene)thiazolidine-2,4-dione]	25.64	46.93	69.55	87.97	43.89 (≈ 190 µM)	34.73	45.98	68.34	88.45	31.62 (≈ 137 µM)	10.8 (≈ 2500 µg/mL)	5.4 (≈ 1250 µg/mL)	5.4 (≈ 1250 µg/mL)	5.4 (≈ 1250 µg/mL)	5.4 (≈ 1250 µg/mL)	5.4 (≈ 1250 µg/mL)	5.4 (≈ 1250 µg/mL)	
CC1=C(C(=O)O)N2C(=O)[C@@H](NC(=O)[C@H](N)c3ccc(O)cc3)[C@H]2SC1 [Cefadroxil, cefadroxil, reference compound]												1.71 (≈ 621 µg/mL)	1.71 (≈ 621 µg/mL)		1.71 (≈ 621 µg/mL)			MIC [5, 15]: 3.4 mM (≈ 1240 µg/mL); MIC [8, 16]: 3.4 mM (≈ 1240 µg/mL)
COc1ccc(C=C2SC(=O)NC2=O)cc1 [Compound 12, 5-(4-methoxybenzylidene)thiazolidine-2,4-dione]	20.67	42.75	77.84	90.50	53.27 (≈ 226 µM)	27.77	53.23	62.27	79.43	27.63 (≈ 117 µM)	10.6 (≈ 2490 µg/mL)	5.31 (≈ 1250 µg/mL)	5.31 (≈ 1250 µg/mL)	10.6 (≈ 2490 µg/mL)	10.6 (≈ 2490 µg/mL)	5.31 (≈ 1250 µg/mL)	5.31 (≈ 1250 µg/mL)	
O=C1NC(=O)C(=Cc2ccc(Cl)cc2Cl)S1 [Compound 3, 5-(2,4-Dichlorobenzylidene)thiazolidine-2,4-dione]	35.89	42.67	70.25	85.44	29.04 (≈ 106 µM)	29.45	47.98	60.83	95.79	43.45 (≈ 159 µM)	9.12 (≈ 2500 µg/mL)	4.5 (≈ 1230 µg/mL)	9.12 (≈ 2500 µg/mL)	4.5 (≈ 1230 µg/mL)	4.5 (≈ 1230 µg/mL)	4.5 (≈ 1230 µg/mL)	4.5 (≈ 1230 µg/mL)	
COc1cc(C=C2SC(=O)NC2=O)ccc1O [Compound 18, 5-(4-Hydroxy-3-methoxybenzylidene)thiazolidine-2,4-dione]	36.94	43.52	60.12	93.03	33.51 (≈ 133 µM)	18.64	45.85	65.11	95.98	56.39 (≈ 224 µM)	9.9 (≈ 2490 µg/mL)	4.9 (≈ 1230 µg/mL)	4.9 (≈ 1230 µg/mL)	4.9 (≈ 1230 µg/mL)	4.9 (≈ 1230 µg/mL)	4.9 (≈ 1230 µg/mL)	4.9 (≈ 1230 µg/mL)	
C[C@H]1O[C@H](O[C@H]2[C@H](O)[C@@H](O)[C@@H](O[C@H]3[C@H](O)[C@@H](O)C(O)O[C@@H]3CO)O[C@@H]2CO)[C@H](O)[C@@H](O)[C@@H]1N[C@H]1C=C(CO)[C@@H](O)[C@H](O)[C@H]1O (stereo partly shown) [Acarabose, Acarbose, reference compound]						37.35	53.45	73.25	88.57									
O=C1NC(=O)C(=Cc2ccccc2O)S1 [Compound 17, 5-(2-Hydroxybenzylidene)thiazolidine-2,4-dione]	32.78	40.24	69.55	89.87	40.06 (≈ 181 µM)	23.67	48.56	65.46	93.17	48.48 (≈ 219 µM)		5.65 (≈ 1250 µg/mL)	5.65 (≈ 1250 µg/mL)		5.65 (≈ 1250 µg/mL)	5.65 (≈ 1250 µg/mL)	5.65 (≈ 1250 µg/mL)	MIC [5, 15]: 11.3 mM (≈ 2500 µg/mL); MIC [8, 16]: 11.3 mM (≈ 2500 µg/mL)
O=C1NC(=O)C(=Cc2ccc(O)cc2)S1 [Compound 5, 5-(4-Hydroxybenzylidene)thiazolidine-2,4-dione]	35.79	39.78	62.02	85.47	31.10 (≈ 141 µM)	18.26	47.61	49.24	96.72	56.64 (≈ 256 µM)		5.65 (≈ 1250 µg/mL)		5.65 (≈ 1250 µg/mL)	5.65 (≈ 1250 µg/mL)	5.65 (≈ 1250 µg/mL)	5.65 (≈ 1250 µg/mL)	MIC [5, 15]: 11.3 mM (≈ 2500 µg/mL); MIC ([7]; tube dilution, 37 ± 1 °C, read-out: Minimum inhibitory concentration, E. coli): 11.3 mM (≈ 2500 µg/mL)
O=C1NC(=O)C(=Cc2ccccc2[N+](=O)[O-])S1 [Compound 4, 5-(2-Nitrobenzylidene)thiazolidine-2,4-dione]	29.45	45.75	79.74	83.10	36.17 (≈ 145 µM)	31.26	40.65	63.93	92.61	43.63 (≈ 174 µM)	9.9 (≈ 2480 µg/mL)	4.99 (≈ 1250 µg/mL)		9.9 (≈ 2480 µg/mL)	4.99 (≈ 1250 µg/mL)	4.99 (≈ 1250 µg/mL)	4.99 (≈ 1250 µg/mL)	
